ChEMBL document CHEMBL2203128, “Antibacterial activity of substituted 5-methylbenzo[c]phenanthridinium derivatives” (2012)
Values after ≈ are worked out from the molar mass of the structure shown.

Experiments:
Type in all cases: functional
Staphylococcus aureus [1] = assay: Antimicrobial activity against methicillin-sensitive Staphylococcus aureus 8325-4 by CLSI protocol based broth microdilution method
Enterococcus faecalis [2] = assay: Antimicrobial activity against vancomycin-sensitive Enterococcus faecalis ATCC 19433 by CLSI protocol based broth microdilution method
Enterococcus faecalis [3] = assay: Antimicrobial activity against vancomycin-resistant Enterococcus faecalis ATCC 51575 by CLSI protocol based broth microdilution method
Staphylococcus aureus [4] = assay: Antimicrobial activity against methicillin-resistant Staphylococcus aureus ATCC 33591 by CLSI protocol based broth microdilution method

Structure (SMILES) | MIC (Staphylococcus aureus [1]) | MIC (Enterococcus faecalis [2]) | MIC (Enterococcus faecalis [3]) | MIC (Staphylococcus aureus [4])
COc1cc2c(ccc3c4ccc(OC)c(OC)c4c[n+](C)c23)c(-c2ccc(N(C)C)cc2)c1OC.[Cl-] | 1 µg/mL | 8 µg/mL | 8 µg/mL | 1 µg/mL
CN(C)[C@@H]1C(O)=C(C(N)=O)C(=O)[C@@]2(O)C(O)=C3C(=O)c4c(O)cccc4[C@@](C)(O)[C@H]3C[C@@H]12 [TETRACYCLINE] | 0.06 µg/mL (≈ 0.135 µM) | 0.5 µg/mL (≈ 1.13 µM) | > 64 µg/mL | 64 µg/mL (≈ 144 µM)
COc1cc2c(ccc3c4ccc(OC)c(OC)c4c[n+](C)c23)c(C2CCCCC2)c1OC.[Cl-] | 1 µg/mL | 8 µg/mL | 8 µg/mL | 2 µg/mL
C[n+]1cc2c3c(ccc2c2ccc4cc5c(cc4c21)OCO5)OCO3.[Cl-] [SANGUINARIUM CHLORIDE] | 2 µg/mL | 8 µg/mL | 16 µg/mL | 2 µg/mL
COc1cc2ccc3c4ccc5c(c4c[n+](C)c3c2cc1OC)OCO5.[Cl-] | 32 µg/mL | 64 µg/mL | > 64 µg/mL | 32 µg/mL
COc1cc2c(-c3ccc(-c4ccccc4)cc3)cc3c4ccc5c(c4c[n+](C)c3c2cc1OC)OCO5.[Cl-] | 2 µg/mL | 4 µg/mL | 8 µg/mL | 2 µg/mL
COc1cc2c(ccc3c4ccc(OC)c(OC)c4c[n+](C)c23)c(-c2cccnc2)c1OC.[Cl-] | 8 µg/mL | 32 µg/mL | 32 µg/mL | 32 µg/mL
CN[C@H](CC(C)C)C(=O)N[C@H]1C(=O)N[C@@H](CC(N)=O)C(=O)N[C@H]2C(=O)N[C@H]3C(=O)N[C@H](C(=O)N[C@H](C(=O)O)c4cc(O)cc(O)c4-c4cc3ccc4O)[C@H](O)c3ccc(c(Cl)c3)Oc3cc2cc(c3O[C@@H]2O[C@H](CO)[C@@H](O)[C@H](O)[C@H]2O[C@H]2C[C@](C)(N)[C@H](O)[C@H](C)O2)Oc2ccc(cc2Cl)[C@H]1O [VANCOMYCIN] | – | 1 µg/mL (≈ 0.69 µM) | > 64 µg/mL | –
COc1cc2ccc3c4ccc(OC)c(OC)c4c[n+](C)c3c2cc1OC.[Cl-] | 32 µg/mL | > 64 µg/mL | > 64 µg/mL | 32 µg/mL
COc1cc2c(ccc3c4ccc5c(c4c[n+](C)c23)OCO5)c(-c2ccc(-c3ccccc3)cc2)c1OC.[Cl-] | 2 µg/mL | 8 µg/mL | 8 µg/mL | 2 µg/mL
COc1cc2c(ccc3c4ccc(OC)c(OC)c4c[n+](C)c23)c(C2CC2)c1OC.[Cl-] | 1 µg/mL | 8 µg/mL | 8 µg/mL | 2 µg/mL
COc1cc2c(ccc3c4ccc(OC)c(OC)c4c[n+](C)c23)c(C2=CCCCC2)c1OC.[Cl-] | 2 µg/mL | 16 µg/mL | 32 µg/mL | 4 µg/mL
COc1cc2c(ccc3c4ccc(OC)c(OC)c4c[n+](C)c23)c(-c2ccoc2)c1OC.[Cl-] | 1 µg/mL | 16 µg/mL | 16 µg/mL | 1 µg/mL
COc1cc(-c2c(OC)c(OC)cc3c2ccc2c4ccc(OC)c(OC)c4c[n+](C)c32)cc(OC)c1OC.[Cl-] | 4 µg/mL | 32 µg/mL | 32 µg/mL | 4 µg/mL
C=Cc1c(OC)c(OC)cc2c1ccc1c3ccc(OC)c(OC)c3c[n+](C)c21.[Cl-] | 1 µg/mL | 8 µg/mL | 8 µg/mL | 2 µg/mL
COc1cc2c(-c3ccccc3)cc3c4ccc(OC)c(OC)c4c[n+](C)c3c2cc1OC.[Cl-] | 1 µg/mL | 8 µg/mL | 16 µg/mL | 2 µg/mL
COc1cc2c(ccc3c4ccc(OC)c(OC)c4c[n+](C)c23)c(-c2ccccc2)c1OC.[Cl-] | 1 µg/mL | 4 µg/mL | 4 µg/mL | 1 µg/mL
COc1cc2c(ccc3c4ccc(OC)c(OC)c4c[n+](C)c23)c(-c2ccc(-c3ccccc3)cc2)c1OC.[Cl-] | 0.5 µg/mL | 4 µg/mL | 8 µg/mL | 0.5 µg/mL
COc1cc2c(ccc3c4ccc5c(c4c[n+](C)c23)OCO5)c(-c2ccccc2)c1OC.[Cl-] | 1 µg/mL | 8 µg/mL | 8 µg/mL | 2 µg/mL
Cc1onc(-c2ccccc2)c1C(=O)N[C@@H]1C(=O)N2[C@@H]1SC(C)(C)[C@@H]2C(=O)O [OXACILLIN] | 0.06 µg/mL (≈ 0.149 µM) | 8 µg/mL (≈ 19.9 µM) | > 64 µg/mL | > 64 µg/mL
CCC[C@@H]1C[C@@H](C(=O)N[C@@H]([C@H]2O[C@H](SC)[C@H](O)[C@@H](O)[C@H]2O)[C@H](C)Cl)N(C)C1 [CLINDAMYCIN] | 0.03 µg/mL (≈ 0.0706 µM) | 2 µg/mL (≈ 4.71 µM) | > 64 µg/mL | > 64 µg/mL
COc1cc2c(-c3ccc(-c4ccccc4)cc3)cc3c4ccc(OC)c(OC)c4c[n+](C)c3c2cc1OC.[Cl-] | 0.5 µg/mL | 16 µg/mL | 16 µg/mL | 0.5 µg/mL
CC[C@H]1OC(=O)[C@H](C)[C@@H](O[C@H]2C[C@@](C)(OC)[C@@H](O)[C@H](C)O2)[C@H](C)[C@@H](O[C@@H]2O[C@H](C)C[C@H](N(C)C)[C@H]2O)[C@](C)(O)C[C@@H](C)C(=O)[C@H](C)[C@@H](O)[C@]1(C)O [ERYTHROMYCIN] | 0.13 µg/mL (≈ 0.177 µM) | 1 µg/mL (≈ 1.36 µM) | > 64 µg/mL | > 64 µg/mL
